US4360516A, “Modified D-retro cyclic hexapeptide somatostatin analogs” (Merck & Co., Inc., priority 1981, dated 1982)
Square brackets hold non-standard residues; d marks the D form. Peptide text beside a SMILES is read from it. dNMeF = CN[C@H](Cc1ccccc1)C(=O)O; dAbu = CC[C@@H](N)C(=O)O

System: growth hormone release, rat pituitary cells
Test: in vitro test for the inhibition of growth hormone release in cultured rat pituitary cells
Assay type: cell-based
Conditions: multiples or fractions of the effect of somatostatin (arbitrary value 1); rat pituitary cells after 4 days in culture, 4 hours incubation, graded doses; growth hormone by radioimmunoassay
Experimental: The instant cyclic hexapeptide analogs ofsomatostatin are tested and compared with the effects of somatostatin in an in vitro test for the inhibition of growth hormone. The test is described as follows:
"Rat pituitaries" were isolated according to the procedures of Vale and Grant `In vitro Pituitary Hormone Secretion Assay for Hypophysiopic Substances` in Methods in Enzymology. Vol.XXXVII, eds. O'Malley, B. W. and Hardman, J. G. (Academic Press, Inc., New York) pp.5-93 (1975).
"After 4 days in culture, the cells were washed and incubated for 4 hours in Dulbecco-modified Eagle's medium in the presence or absence of graded doses of each analog of somatostatin. The medium was then collected for subsequent growth hormone determination by a double antibody radioimmunoassay for rat growth hormone."
The test results for some of the compounds of this invention are recorded below with the results for somatostatin listed first and given the arbitrary value of 1. The results for the instant compounds are given as multiples or fractions of the effect of somatostatin. The first of the instant compounds listed is the compound prepared in Examples 1-5. The compound is written slightly different, however, to conform to the order of the amino acids found in somatostatin.

Row | Structure (SMILES) | Growth Hormone Release Inhibition In Vitro
1 | C[C@H](O)[C@H]1NC(=O)[C@@H](Cc2ccccc2)N(C)C(=O)[C@@H](C)NC(=O)[C@@H](Cc2ccccc2)NC(=O)[C@H](Cc2c[nH]c3ccccc23)NC(=O)[C@@H](CCCCN)NC1=O [Cyclo-(D-Ala--N--Me--D-Phe--D-Thr--D-Lys--L-Trp--D-Phe)] (cyclo(W[dF][dA][dNMeF][dT][dK])) | 0.27
2 | CC[C@H]1NC(=O)[C@@H](Cc2ccc(O)cc2)NC(=O)[C@@H](Cc2c[nH]c3ccccc23)NC(=O)[C@H](CCCCN)NC(=O)[C@@H](C(C)C)NC(=O)[C@@H](Cc2ccccc2)N(C)C1=O [Cyclo-(D-Abu--N--Me--D-Phe--D-Val--L-Lys--D-Trp--D-Tyr)] (cyclo(K[dW][dY][dAbu][dNMeF][dV])) | 2.4
3 | C[C@H](O)[C@H]1NC(=O)[C@@H](Cc2ccccc2)N(C)C(=O)[C@@H](C)NC(=O)[C@@H](Cc2ccccc2)NC(=O)[C@@H](Cc2c[nH]c3ccccc23)NC(=O)[C@H](CCCCN)NC1=O [Cyclo-(D-Ala--N--Me--D-Phe--D-Thr--L-Lys--D-Trp--D-Phe)] (cyclo(K[dW][dF][dA][dNMeF][dT])) | 0.88
4 | CC(C)[C@H]1NC(=O)[C@@H](Cc2ccccc2)N(C)C(=O)[C@@H](C)NC(=O)[C@@H](Cc2ccccc2)NC(=O)[C@@H](Cc2c[nH]c3ccccc23)NC(=O)[C@H](CCCCN)NC1=O [Cyclo-(D-Ala--N--Me--D-Phe--D-Val--L-Lys--D-Trp--D-Phe)] (cyclo(K[dW][dF][dA][dNMeF][dV])) | 0.3
